# Assay results reported in publication PMC4710522, “A Novel Triazolopyridine-Based Spleen Tyrosine Kinase Inhibitor That Arrests Joint Inflammation” (PLoS ONE, 2016).
# “And” between values parts separate entries of the source, which are not always exact repeats. Equal values may be shown once.
# Assays:
# Experiment in all cases: SelectScreen kinase assay
# Type in all cases: biochemical
# [1] = target: T1, Plk2_h (Homo sapiens, UniProt Q9NYY3); conditions: KM ATP, read-out: % control
# T1 construct: purchased Life Technologies (Invitrogen) SelectScreen, Z'-LYTE / Adapta
# Method in brief: (§1)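 Z'-Lyte or Adapta format; compound fixed at 3 µM; ATP at KM, 10 µM or 100 µM as indicated; read-out % control relative to uninhibited DMSO wells.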
# [2] = target: T2, MRCK-beta_h (Homo sapiens, UniProt Q9Y5S2); conditions: KM ATP, read-out: % control
# T2 construct: purchased Life Technologies (Invitrogen) SelectScreen, Z'-LYTE / Adapta
# Method in brief: as §1
# [3] = target: T3, MST4_h (Homo sapiens, UniProt Q9P289); conditions: KM ATP, read-out: % control
# T3 construct: purchased Life Technologies (Invitrogen) SelectScreen, Z'-LYTE / Adapta
# Method in brief: as §1
# [4] = target: T4, Met_M1250T_h (Homo sapiens, UniProt P08581, M1250T); conditions: KM ATP, read-out: % control
# T4 construct: purchased Life Technologies (Invitrogen) SelectScreen, Z'-LYTE / Adapta
# Method in brief: as §1
# [5] = target: T5, CDK9_h (Homo sapiens, UniProt P50750); conditions: KM ATP, read-out: % control
# T5 construct: purchased Life Technologies (Invitrogen) SelectScreen, Z'-LYTE / Adapta
# Method in brief: as §1
# [6] = target: T6, cSRC-N1_h (Homo sapiens, UniProt P12931); conditions: KM ATP, read-out: % control
# T6 construct: purchased Life Technologies (Invitrogen) SelectScreen, Z'-LYTE / Adapta
# Method in brief: as §1
# [7] = target: T7, DCAMKL2_h (Homo sapiens, UniProt Q8N568); conditions: KM ATP, read-out: % control
# T7 construct: purchased Life Technologies (Invitrogen) SelectScreen, Z'-LYTE / Adapta
# Method in brief: as §1
# [8] = target: cKit_h (Homo sapiens, UniProt P10721)
# cKit_h, sequence (P10721 26-976): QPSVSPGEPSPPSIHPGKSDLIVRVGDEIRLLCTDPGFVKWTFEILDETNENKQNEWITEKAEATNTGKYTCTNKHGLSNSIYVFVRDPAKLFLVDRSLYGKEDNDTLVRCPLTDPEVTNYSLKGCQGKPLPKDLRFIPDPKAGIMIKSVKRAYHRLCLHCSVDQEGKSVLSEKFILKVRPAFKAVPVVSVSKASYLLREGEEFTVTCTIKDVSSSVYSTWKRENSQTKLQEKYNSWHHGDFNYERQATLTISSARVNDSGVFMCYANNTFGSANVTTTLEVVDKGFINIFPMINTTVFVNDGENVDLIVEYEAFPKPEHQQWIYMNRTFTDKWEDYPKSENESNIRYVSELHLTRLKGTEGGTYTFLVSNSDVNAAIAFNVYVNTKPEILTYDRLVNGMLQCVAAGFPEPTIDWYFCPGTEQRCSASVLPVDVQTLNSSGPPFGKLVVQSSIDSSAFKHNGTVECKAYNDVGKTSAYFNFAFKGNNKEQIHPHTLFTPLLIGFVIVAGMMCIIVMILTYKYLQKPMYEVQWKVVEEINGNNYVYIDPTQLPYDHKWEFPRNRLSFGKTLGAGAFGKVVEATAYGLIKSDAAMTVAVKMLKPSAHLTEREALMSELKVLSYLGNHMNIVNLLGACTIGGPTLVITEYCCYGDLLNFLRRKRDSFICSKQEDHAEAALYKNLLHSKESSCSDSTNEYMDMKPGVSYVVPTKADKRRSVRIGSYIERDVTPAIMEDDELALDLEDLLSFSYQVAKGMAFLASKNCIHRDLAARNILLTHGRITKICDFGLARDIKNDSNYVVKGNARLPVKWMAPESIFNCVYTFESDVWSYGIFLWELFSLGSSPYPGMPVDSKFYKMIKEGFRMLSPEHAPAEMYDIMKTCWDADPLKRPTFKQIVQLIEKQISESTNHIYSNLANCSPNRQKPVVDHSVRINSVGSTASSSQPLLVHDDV
# Method in brief: as §1
# [9] = target: T8, EphA2_h (Homo sapiens, UniProt P29317); conditions: KM ATP, read-out: % control
# T8 construct: purchased Life Technologies (Invitrogen) SelectScreen, Z'-LYTE / Adapta
# Method in brief: as §1
# [10] = target: T9, CHK1_h (Homo sapiens, UniProt O14757); conditions: KM ATP, read-out: % control
# T9 construct: purchased Life Technologies (Invitrogen) SelectScreen, Z'-LYTE / Adapta
# T9 sequence (O14757 whole entry): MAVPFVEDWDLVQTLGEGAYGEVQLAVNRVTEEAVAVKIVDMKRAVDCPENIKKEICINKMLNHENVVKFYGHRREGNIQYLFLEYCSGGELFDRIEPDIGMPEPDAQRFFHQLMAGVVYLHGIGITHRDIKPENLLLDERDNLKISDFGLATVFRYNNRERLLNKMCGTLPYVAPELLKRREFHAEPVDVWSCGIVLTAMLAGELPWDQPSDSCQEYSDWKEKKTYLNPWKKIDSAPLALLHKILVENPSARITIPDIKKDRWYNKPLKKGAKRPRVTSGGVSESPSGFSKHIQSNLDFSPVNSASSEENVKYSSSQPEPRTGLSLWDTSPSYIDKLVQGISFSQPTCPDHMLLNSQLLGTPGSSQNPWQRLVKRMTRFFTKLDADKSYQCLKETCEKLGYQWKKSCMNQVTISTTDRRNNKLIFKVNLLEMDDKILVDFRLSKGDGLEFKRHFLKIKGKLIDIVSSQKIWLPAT
# Method in brief: as §1
# [11] = target: T10, HIPK2_h (Homo sapiens, UniProt Q9H2X6); conditions: KM ATP, read-out: % control
# T10 construct: purchased Life Technologies (Invitrogen) SelectScreen, Z'-LYTE / Adapta
# T10 sequence (Q9H2X6 whole entry): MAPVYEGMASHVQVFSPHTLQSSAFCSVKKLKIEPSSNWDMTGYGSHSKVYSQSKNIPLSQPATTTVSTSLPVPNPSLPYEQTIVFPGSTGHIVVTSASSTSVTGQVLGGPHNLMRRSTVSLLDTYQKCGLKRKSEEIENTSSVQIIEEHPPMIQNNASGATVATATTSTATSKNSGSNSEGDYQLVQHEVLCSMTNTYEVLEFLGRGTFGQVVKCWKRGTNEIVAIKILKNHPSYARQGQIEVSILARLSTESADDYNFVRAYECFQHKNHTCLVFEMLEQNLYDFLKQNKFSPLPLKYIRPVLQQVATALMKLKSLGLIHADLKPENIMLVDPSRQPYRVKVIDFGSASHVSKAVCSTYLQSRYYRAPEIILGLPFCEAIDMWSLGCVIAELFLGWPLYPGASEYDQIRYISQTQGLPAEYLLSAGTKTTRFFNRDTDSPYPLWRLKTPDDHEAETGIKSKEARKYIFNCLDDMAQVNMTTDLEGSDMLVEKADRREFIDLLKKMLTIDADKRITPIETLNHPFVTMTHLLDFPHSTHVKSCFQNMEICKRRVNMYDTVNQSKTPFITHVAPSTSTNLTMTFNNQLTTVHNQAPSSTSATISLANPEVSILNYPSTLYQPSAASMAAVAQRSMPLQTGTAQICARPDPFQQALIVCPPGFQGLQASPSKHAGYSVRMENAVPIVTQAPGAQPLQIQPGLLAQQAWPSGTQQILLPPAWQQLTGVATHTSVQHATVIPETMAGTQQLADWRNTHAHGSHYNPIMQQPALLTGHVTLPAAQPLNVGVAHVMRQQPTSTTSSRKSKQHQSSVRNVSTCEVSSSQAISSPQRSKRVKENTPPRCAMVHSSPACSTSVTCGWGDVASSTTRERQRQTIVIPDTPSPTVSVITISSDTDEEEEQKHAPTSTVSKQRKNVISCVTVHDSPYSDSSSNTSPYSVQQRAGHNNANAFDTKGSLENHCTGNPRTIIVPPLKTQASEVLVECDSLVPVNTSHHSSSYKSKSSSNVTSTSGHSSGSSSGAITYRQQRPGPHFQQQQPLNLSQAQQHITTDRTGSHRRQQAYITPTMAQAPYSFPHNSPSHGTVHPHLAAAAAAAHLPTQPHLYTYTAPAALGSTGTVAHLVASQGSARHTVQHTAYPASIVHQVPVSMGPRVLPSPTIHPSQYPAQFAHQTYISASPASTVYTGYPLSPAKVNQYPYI
# Method in brief: as §1
# [12] = target: T11, PRKG2_h (Homo sapiens, UniProt Q13237); conditions: KM ATP, read-out: % control
# T11 construct: purchased Life Technologies (Invitrogen) SelectScreen, Z'-LYTE / Adapta
# Method in brief: as §1
# [13] = target: T12, FGFR2_h (Homo sapiens, UniProt P21802); conditions: KM ATP, read-out: % control
# T12 construct: purchased Life Technologies (Invitrogen) SelectScreen, Z'-LYTE / Adapta
# Method in brief: as §1
# [14] = target: T13, ErbB4_h (Homo sapiens, UniProt Q15303); conditions: KM ATP, read-out: % control
# T13 construct: purchased Life Technologies (Invitrogen) SelectScreen, Z'-LYTE / Adapta
# Method in brief: as §1
# [15] = target: T14, JAK2-JH1-JH2_h (Homo sapiens, UniProt O60674); conditions: KM ATP, read-out: % control
# T14 construct: JAK2-JH1-JH2_h; purchased Life Technologies (Invitrogen) SelectScreen, Z'-LYTE / Adapta
# T14 sequence (O60674 532-1132 limits assumed): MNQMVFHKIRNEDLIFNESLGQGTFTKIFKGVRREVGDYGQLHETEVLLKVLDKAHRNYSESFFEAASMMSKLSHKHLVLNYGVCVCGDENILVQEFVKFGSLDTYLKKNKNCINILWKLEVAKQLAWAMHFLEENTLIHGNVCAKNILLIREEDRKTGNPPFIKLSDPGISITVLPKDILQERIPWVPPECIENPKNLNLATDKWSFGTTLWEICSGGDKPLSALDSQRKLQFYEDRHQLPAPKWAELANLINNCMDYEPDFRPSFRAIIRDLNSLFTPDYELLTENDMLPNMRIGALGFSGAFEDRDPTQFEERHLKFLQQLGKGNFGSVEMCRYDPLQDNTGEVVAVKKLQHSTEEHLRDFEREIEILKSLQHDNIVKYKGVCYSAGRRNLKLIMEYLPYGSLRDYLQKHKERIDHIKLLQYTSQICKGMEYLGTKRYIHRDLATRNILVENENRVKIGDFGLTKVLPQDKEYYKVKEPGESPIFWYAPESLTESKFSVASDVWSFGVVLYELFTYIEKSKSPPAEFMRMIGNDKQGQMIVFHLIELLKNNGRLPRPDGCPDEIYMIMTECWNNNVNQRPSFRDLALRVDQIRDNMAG
# Method in brief: as §1
# [16] = target: T15, PDGFR-alpha_D842V_h (Homo sapiens, UniProt P16234, D842V); conditions: KM ATP, read-out: % control
# T15 construct: purchased Life Technologies (Invitrogen) SelectScreen, Z'-LYTE / Adapta
# T15 sequence (P16234 24-1089 D842V): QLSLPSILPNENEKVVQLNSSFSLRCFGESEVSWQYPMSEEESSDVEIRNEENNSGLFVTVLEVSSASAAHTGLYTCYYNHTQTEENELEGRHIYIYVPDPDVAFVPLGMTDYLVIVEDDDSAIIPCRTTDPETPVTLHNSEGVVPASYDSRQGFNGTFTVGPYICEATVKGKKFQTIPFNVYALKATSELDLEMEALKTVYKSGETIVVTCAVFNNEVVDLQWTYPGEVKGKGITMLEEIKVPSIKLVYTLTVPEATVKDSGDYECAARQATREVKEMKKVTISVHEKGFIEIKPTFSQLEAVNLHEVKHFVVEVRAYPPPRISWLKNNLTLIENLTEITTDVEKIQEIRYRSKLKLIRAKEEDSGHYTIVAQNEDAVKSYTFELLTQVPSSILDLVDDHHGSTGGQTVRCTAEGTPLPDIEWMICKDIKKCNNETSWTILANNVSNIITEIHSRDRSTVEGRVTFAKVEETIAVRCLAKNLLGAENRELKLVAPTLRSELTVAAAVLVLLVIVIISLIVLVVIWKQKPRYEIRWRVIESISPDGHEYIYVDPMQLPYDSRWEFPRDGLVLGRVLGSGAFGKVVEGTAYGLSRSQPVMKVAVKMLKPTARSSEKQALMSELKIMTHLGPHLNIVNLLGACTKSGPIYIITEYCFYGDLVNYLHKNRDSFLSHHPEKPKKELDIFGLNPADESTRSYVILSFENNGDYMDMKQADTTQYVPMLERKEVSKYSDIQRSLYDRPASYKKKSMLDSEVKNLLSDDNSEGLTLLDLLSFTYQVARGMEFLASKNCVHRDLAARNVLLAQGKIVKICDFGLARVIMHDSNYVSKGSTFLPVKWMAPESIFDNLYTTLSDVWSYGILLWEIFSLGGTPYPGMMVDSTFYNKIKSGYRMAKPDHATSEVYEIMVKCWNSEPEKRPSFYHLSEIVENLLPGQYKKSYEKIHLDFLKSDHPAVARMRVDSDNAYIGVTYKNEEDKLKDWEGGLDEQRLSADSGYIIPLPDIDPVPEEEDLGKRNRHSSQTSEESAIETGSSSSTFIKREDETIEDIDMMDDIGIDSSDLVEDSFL
# Method in brief: as §1
# [17] = target: T16, cKit_T670I_h (Homo sapiens, UniProt P10721, T670I); conditions: KM ATP, read-out: % control
# T16 construct: purchased Life Technologies (Invitrogen) SelectScreen, Z'-LYTE / Adapta
# Method in brief: as §1
# [18] = target: Aurora-B_h (Homo sapiens, UniProt Q96GD4)
# Aurora-B_h, sequence (Q96GD4 whole entry): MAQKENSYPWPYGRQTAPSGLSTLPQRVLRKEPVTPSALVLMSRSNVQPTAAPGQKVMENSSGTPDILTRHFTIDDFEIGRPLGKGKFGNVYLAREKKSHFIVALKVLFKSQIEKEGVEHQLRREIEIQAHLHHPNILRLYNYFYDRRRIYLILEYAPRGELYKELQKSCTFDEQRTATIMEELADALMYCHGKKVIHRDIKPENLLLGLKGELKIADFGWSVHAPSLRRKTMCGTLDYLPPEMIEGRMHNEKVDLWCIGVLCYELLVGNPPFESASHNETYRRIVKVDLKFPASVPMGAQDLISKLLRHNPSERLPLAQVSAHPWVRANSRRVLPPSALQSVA
# Method in brief: as §1
# [19] = target: T17, Itk_h (Homo sapiens, UniProt Q08881); conditions: KM ATP, read-out: % control
# T17 construct: purchased Life Technologies (Invitrogen) SelectScreen, Z'-LYTE / Adapta
# Method in brief: as §1
# [20] = target: T18, Fyn_h (Homo sapiens, UniProt P06241); conditions: KM ATP, read-out: % control
# T18 construct: purchased Life Technologies (Invitrogen) SelectScreen, Z'-LYTE / Adapta
# Method in brief: as §1
# [21] = target: T19, IKK1_h (Homo sapiens, UniProt O15111); conditions: KM ATP, read-out: % control
# T19 construct: purchased Life Technologies (Invitrogen) SelectScreen, Z'-LYTE / Adapta
# Method in brief: as §1
# [22] = target: T20, Ros_h (Homo sapiens, UniProt P08922); conditions: KM ATP, read-out: % control
# T20 construct: purchased Life Technologies (Invitrogen) SelectScreen, Z'-LYTE / Adapta
# Method in brief: as §1
# [23] = target: T21, LRRK2_h (Homo sapiens, UniProt Q5S007); conditions: KM ATP, read-out: % control
# T21 construct: purchased Life Technologies (Invitrogen) SelectScreen, Z'-LYTE / Adapta
# Method in brief: as §1
# [24] = target: T22, MAPKAP-K2_h (Homo sapiens, UniProt P49137); conditions: KM ATP, read-out: % control
# T22 construct: purchased Life Technologies (Invitrogen) SelectScreen, Z'-LYTE / Adapta
# Method in brief: as §1
# [25] = target: T23, TAO1_h (Homo sapiens, UniProt Q9UL54); conditions: KM ATP, read-out: % control
# T23 construct: purchased Life Technologies (Invitrogen) SelectScreen, Z'-LYTE / Adapta
# Method in brief: as §1
# [26] = target: T24, Ron_h (Homo sapiens, UniProt Q04912); conditions: KM ATP, read-out: % control
# T24 construct: purchased Life Technologies (Invitrogen) SelectScreen, Z'-LYTE / Adapta
# Method in brief: as §1
# [27] = target: T25, CLK1_h (Homo sapiens, UniProt P49759); conditions: KM ATP, read-out: % control
# T25 construct: purchased Life Technologies (Invitrogen) SelectScreen, Z'-LYTE / Adapta
# Method in brief: as §1
# [28] = target: T26, CK1-gamma1_h (Homo sapiens, UniProt Q9HCP0); conditions: KM ATP, read-out: % control
# T26 construct: purchased Life Technologies (Invitrogen) SelectScreen, Z'-LYTE / Adapta
# T26 sequence (Q9HCP0 whole entry): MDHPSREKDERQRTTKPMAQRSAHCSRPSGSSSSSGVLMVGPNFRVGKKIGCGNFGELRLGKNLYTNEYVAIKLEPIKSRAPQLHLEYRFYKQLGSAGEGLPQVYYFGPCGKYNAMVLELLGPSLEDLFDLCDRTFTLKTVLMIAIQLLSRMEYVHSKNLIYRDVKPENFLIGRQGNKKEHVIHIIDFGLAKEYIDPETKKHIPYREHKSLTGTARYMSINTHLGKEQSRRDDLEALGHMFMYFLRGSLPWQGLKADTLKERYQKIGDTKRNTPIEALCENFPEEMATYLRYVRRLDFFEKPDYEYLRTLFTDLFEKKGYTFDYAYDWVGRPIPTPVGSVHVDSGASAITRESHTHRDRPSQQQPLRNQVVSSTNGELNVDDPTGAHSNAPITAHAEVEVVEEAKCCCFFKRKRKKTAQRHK
# Method in brief: as §1
# [29] = target: T27, CK2_h (Homo sapiens, UniProt P68400); conditions: KM ATP, read-out: % control
# T27 construct: purchased Life Technologies (Invitrogen) SelectScreen, Z'-LYTE / Adapta
# Method in brief: as §1
# [30] = target: T28, PKC-theta_h (Homo sapiens, UniProt Q04759); conditions: KM ATP, read-out: % control
# T28 construct: purchased Life Technologies (Invitrogen) SelectScreen, Z'-LYTE / Adapta
# Method in brief: as §1
# [31] = target: T29, GRK4_h (Homo sapiens, UniProt P32298); conditions: KM ATP, read-out: % control
# T29 construct: purchased Life Technologies (Invitrogen) SelectScreen, Z'-LYTE / Adapta
# Method in brief: as §1
# [32] = target: T30, Fgr_h (Homo sapiens, UniProt P09769); conditions: KM ATP, read-out: % control
# T30 construct: purchased Life Technologies (Invitrogen) SelectScreen, Z'-LYTE / Adapta
# Method in brief: as §1
# [33] = target: T31, BRAF V599E (Homo sapiens, UniProt P15056, V600E); conditions: 100 µM ATP, read-out: % control
# T31 construct: purchased Life Technologies (Invitrogen) SelectScreen, Z'-LYTE / Adapta
# Method in brief: as §1
# [34] = 3 µM, KM ATP, read-out: % control
# [35] = 10-point dose-response, commercial vendor
smiles,measurement,setting,value
"c1cc(CC2CCOCC2)n2nc(Nc3ccc4c(NC5CCOCC5)n[nH]c4c3)nc2c1 [CC-509, [3-(2H-3,4,5,6-tetrahydropyran-4-ylamino)(1H-indazol-6-yl)][5-(2H-3,4,5,6-tetrahydropyran-4-ylmethyl)(2H-1,2,4-triazolo[1,5-a]pyridin-2-yl)]amine]",remaining activity at 3 µM,[1],96%
same,remaining activity at 3 µM,[2],94%
same,remaining activity at 3 µM,[3],99%
same,remaining activity at 3 µM,[4],74%
same,remaining activity at 3 µM,[5],31%
same,remaining activity at 3 µM,[6],58%
same,remaining activity at 3 µM,[7],98%
same,remaining activity at 3 µM,[8]; [34],66%
same,IC50,[8]; [35],11000 nM
same,remaining activity at 3 µM,[9],82%
same,remaining activity at 3 µM,[10],94%
same,remaining activity at 3 µM,[11],96%
same,remaining activity at 3 µM,[12],93%
same,remaining activity at 3 µM,[13],46%
same,remaining activity at 3 µM,[14],91%
same,remaining activity at 3 µM,[15],4%
same,remaining activity at 3 µM,[16],9%
same,remaining activity at 3 µM,[17],83%
same,remaining activity at 3 µM,[18]; [34],14%
same,IC50,[18]; [35],410 nM and 409 nM
same,remaining activity at 3 µM,[19],91%
same,remaining activity at 3 µM,[20],74%
same,remaining activity at 3 µM,[21],106%
same,remaining activity at 3 µM,[22],74%
same,remaining activity at 3 µM,[23],3%
same,remaining activity at 3 µM,[24],96%
same,remaining activity at 3 µM,[25],96%
same,remaining activity at 3 µM,[26],74%
same,remaining activity at 3 µM,[27],82%
same,remaining activity at 3 µM,[28],54%
same,remaining activity at 3 µM,[29],94%
same,remaining activity at 3 µM,[30],78%
same,remaining activity at 3 µM,[31],82%
same,remaining activity at 3 µM,[32],21%
same,remaining activity at 3 µM,[33],88%
